Measured values: the supplement of paper PMC10307832

Assays:
Assay in all cases: relative viability (nuclei count vs DMSO), 5 days (fraction); higher = more cells survive
[1] = compound: CN1C=C(C2=CC=CC=C21)/C=C\3/C4=C(C=CC=N4)NC3=O + CC1(C)CCC(c2ccc(Cl)cc2)=C(CN2CCN(c3ccc(C(=O)NS(=O)(=O)c4ccc(N[C@H](CCN5CCOCC5)CSc5ccccc5)c(S(=O)(=O)C(F)(F)F)c4)cc3)CC2)C1 [Navitoclax] (partner 0.5 µM)
Method in brief: (§1)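 Each reported value is a median over duplicate plates. It expresses relative viability: treated-well nuclei count divided by vehicle-well nuclei count. Lung cancer cell lines in 1536-well plates were dosed by pin tool a day after seeding, alone with one drug or with a fixed anchor-drug dose plus five library-drug doses (not always all listed) in √10 steps, and nuclei were counted after 5 days.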

[2] = compound: CN1C=C(C2=CC=CC=C21)/C=C\3/C4=C(C=CC=N4)NC3=O + C[C@]1(O)C[C@@H](c2nc(-c3ccc4ccc(-c5ccccc5)nc4c3)c3c(N)nccn32)C1 [Linsitinib] (partner 1 µM)
Method in brief: as §1

[3] = compound: CN1C=C(C2=CC=CC=C21)/C=C\3/C4=C(C=CC=N4)NC3=O + Cc1nc(Nc2ncc(C(=O)Nc3c(C)cccc3Cl)s2)cc(N2CCN(CCO)CC2)n1 [Dasatinib] (partner 0.075 µM)
Method in brief: as §1

[4] = compound: CN1C=C(C2=CC=CC=C21)/C=C\3/C4=C(C=CC=N4)NC3=O + N=C(N)NC(=N)NCCc1ccccc1 [Phenformin] (partner 250 µM)
Method in brief: as §1

Row | Cell Line | relative viability ([1]; first compound 0.02 µM) | relative viability ([1]; first compound 0.6325 µM) | relative viability ([1]; first compound 2 µM) | relative viability ([2]; first compound 0.02 µM) | relative viability ([2]; first compound 0.6325 µM) | relative viability ([2]; first compound 2 µM) | relative viability ([3]; first compound 0.02 µM) | relative viability ([3]; first compound 0.06325 µM) | relative viability ([3]; first compound 0.2 µM) | relative viability ([3]; first compound 0.6325 µM) | relative viability ([3]; first compound 2 µM) | relative viability ([4]; first compound 0.02 µM) | relative viability ([4]; first compound 0.06325 µM) | relative viability ([4]; first compound 0.2 µM) | relative viability ([4]; first compound 0.6325 µM) | relative viability ([4]; first compound 2 µM) | relative viability ([1]; first compound 0.06325 µM) | relative viability ([2]; first compound 0.06325 µM) | relative viability ([1]; first compound 0.2 µM) | relative viability ([2]; first compound 0.2 µM)
1 | LCLC-97TM1 | 0.322 | 0.566 | 0.36 | 0.164 | 0.203 | 0.179 | 0.529 | 0.76 | 0.876 | 0.968 | 0.882 | 0.462 | 0.408 | 0.411 | 0.442 | 0.428 | – | – | – | –
2 | NCI-H2228 | 1.22 | 0.67 | 0.812 | 0.53 | 0.603 | 0.759 | 0.524 | 0.458 | – | – | 0.485 | 0.213 | 0.273 | – | – | 0.304 | 0.796 | 0.463 | – | –
3 | COR-L23 | 1.19 | 1 | 1.09 | 0.924 | 1.03 | 0.865 | 0.551 | 0.449 | 0.494 | 0.51 | 0.529 | 0.429 | 0.396 | 0.394 | 0.48 | 0.441 | 0.983 | 0.967 | 1.03 | 0.865
4 | EMC-BAC-2 | 0.924 | 1.13 | 1.35 | 0.787 | 0.852 | 0.867 | 0.356 | 0.323 | 0.32 | 0.332 | 0.407 | 0.538 | 0.525 | 0.522 | 0.475 | 0.533 | 1.12 | 0.826 | 1.25 | 0.806
5 | NCI-H1944 | 1.11 | 1.09 | 1.13 | 1.19 | 1.32 | 1.23 | 0.214 | 0.215 | – | 0.194 | 0.217 | 0.21 | 0.181 | – | 0.181 | 0.167 | 1.01 | 1.18 | – | –
6 | A-427 | 0.975 | 0.984 | 1.06 | 1.06 | 1.15 | 1.12 | 0.696 | 0.664 | – | 0.644 | 0.86 | 0.261 | 0.309 | – | 0.275 | 0.348 | 0.887 | 1.07 | – | –
7 | NCI-H520 | 0.935 | 1.17 | 1.17 | 0.87 | 0.96 | 1.02 | 0.206 | 0.213 | 0.199 | 0.182 | 0.221 | 0.453 | 0.503 | 0.54 | 0.669 | 0.533 | 1.03 | 0.808 | 1.09 | 0.963
8 | COR-L 105 | 0.552 | 0.727 | 0.873 | 0.969 | 0.809 | 0.916 | 0.306 | 0.298 | 0.273 | 0.34 | 0.367 | 0.518 | 0.444 | 0.496 | 0.489 | 0.486 | 0.563 | 0.948 | 0.711 | 0.9
9 | NCI-H1755 | 0.836 | 0.909 | 0.885 | 0.95 | 0.968 | 0.991 | 0.365 | 0.411 | 0.37 | 0.402 | 0.351 | 0.532 | 0.537 | 0.523 | 0.263 | 0.571 | 1 | 1.01 | 0.98 | 0.967
10 | NCI-H2085 | 1.04 | 1.22 | 1.18 | 0.867 | 0.866 | 1.02 | 0.248 | 0.273 | 0.195 | 0.227 | 0.204 | 0.74 | 0.656 | 0.647 | 0.778 | 0.72 | 1.15 | 0.825 | 1.19 | 0.867
11 | NCI-H2023 | 1.06 | 1.03 | 0.996 | 0.615 | 0.665 | 0.692 | 0.638 | 0.566 | 0.349 | 0.458 | 0.381 | 0.395 | 0.376 | 0.361 | 0.409 | 0.418 | 0.935 | 0.657 | 0.961 | 0.628
12 | HOP-62 | 1.25 | 0.99 | 1 | 0.923 | 1.03 | 1.02 | 0.683 | 0.709 | 0.592 | 0.599 | 0.648 | 0.645 | 0.678 | 0.72 | 0.664 | 0.752 | 1.14 | 0.961 | 0.703 | 1.07
